Test system: skin
Test: Affymetrix microarray of skin, DBP-4 hr and analogs vs. untreated; gene selection by log-2 fold change, Wilcoxon, Kendall tau (Tables 8, 9)
Type: in vivo, mouse
Conditions: for Wilcoxon: DBP-4 hr vs. untreated; for Kendall: Kendall tau, expression vs. outcome
[1] = gene #535 Tmem93 NM_001168470_at
[2] = gene #536 Nfkb2 NM_001177369_at
[3] = gene #537 Nfkb2 NM_001177370_at
[4] = gene #538 Zfp518b NM_001177902_at
[5] = gene #541 Meis1 NM_001193271_at
[6] = gene #542 Bcar1 NM_001198839_at
[7] = gene #543 Dcaf11 NM_001199009_at
[8] = gene #544 Rabgef1 NM_001199059_at
[9] = gene #545 4931408A02Rik NM_001199210_at

SMILES: CCCCOC(=O)c1ccccc1C(=O)OCCCC [DBP, dibutylphthalate]
- Log2 Expression Level (gene #56 of Table 8): 10.17
- Log2 Expression Level (gene #57 of Table 8): 8.92
- Log2 Expression Level (gene #58 of Table 8): 9.48
- Log2 Expression Level (gene #59 of Table 8): 8.72
- Log2 Expression Level (gene #60 of Table 8): 7.73
- Log2 Expression Level (gene #61 of Table 8): 12.15
- Log2 Expression Level (gene #62 of Table 8): 8.52
- Log2 Expression Level (gene #63 of Table 8): 11.36
- Log2 Expression Level (gene #64 of Table 8): 11.47
- Log2 Expression Level (gene #65 of Table 8): 7.88
- Log2 Expression Level (gene #66 of Table 8): 8.85
- Log2 Expression Level (gene #67 of Table 8): 5.48
- Log2 Expression Level (gene #68 of Table 8): 10.24
- Log2 Expression Level (gene #69 of Table 8): 6.54
- Log2 Expression Level (gene #70 of Table 8): 5.48
- Log2 Expression Level (gene #71 of Table 8): 8.51
- Log2 Expression Level (gene #72 of Table 8): 9.12
- Log2 Expression Level (gene #73 of Table 8): 7.67
- Log2 Expression Level (gene #74 of Table 8): 7.70
- Log2 Expression Level (gene #75 of Table 8): 9.61
- Log2 Expression Level (gene #76 of Table 8): 5.46
- Log2 Expression Level (gene #77 of Table 8): 9.71
- Log2 Expression Level (gene #78 of Table 8): 10.76
- Log2 Expression Level (gene #79 of Table 8): 8.09
- Log2 Expression Level (gene #80 of Table 8): 13.23
- Log2 Expression Level (gene #81 of Table 8): 6.69
- Log2 Expression Level (gene #82 of Table 8): 6.28
- Log2 Expression Level (gene #83 of Table 8): 7.59
- Log2 Expression Level (gene #84 of Table 8): 8.32
- Log2 Expression Level (gene #85 of Table 8): 7.84
- Log2 Expression Level (gene #86 of Table 8): 7.16
- Log2 Expression Level (gene #87 of Table 8): 9.56
- Log2 Expression Level (gene #88 of Table 8): 8.67
- Log2 Expression Level (gene #89 of Table 8): 6.04
- Log2 Expression Level (gene #90 of Table 8): 10.84
- Log2 Expression Level (gene #91 of Table 8): 8.25
- Log2 Expression Level (gene #92 of Table 8): 7.56
- Log2 Expression Level (gene #93 of Table 8): 9.98
- Log2 Expression Level (gene #94 of Table 8): 8.85
- Log2 Expression Level (gene #95 of Table 8): 7.22
- Log2 Expression Level (gene #96 of Table 8): 8.79
- Log2 Expression Level (gene #97 of Table 8): 6.04
- Log2 Expression Level (gene #98 of Table 8): 5.99
- Log2 Expression Level (gene #99 of Table 8): 10.05
- Log2 Expression Level (gene #100 of Table 8): 8.07
- Wilcoxon [1]: No
- Kendall [1]: Yes
- Wilcoxon [2]: No
- Kendall [2]: Yes
- Wilcoxon [3]: No
- Kendall [3]: Yes
- Wilcoxon [4]: No
- Kendall [4]: Yes
- Wilcoxon (gene #539 Ccm2 NM_001190343_at): No
- Kendall (gene #539 Ccm2 NM_001190343_at): Yes
- Wilcoxon (gene #540 Ccm2 NM_001190344_at): No
- Kendall (gene #540 Ccm2 NM_001190344_at): Yes
- Wilcoxon [5]: No
- Kendall [5]: Yes
- Wilcoxon [6]: No
- Kendall [6]: Yes
- Wilcoxon [7]: No
- Kendall [7]: Yes
- Wilcoxon [8]: No
- Kendall [8]: Yes
- Wilcoxon [9]: No
- Kendall [9]: Yes
- Wilcoxon (gene #546 Cav1 NM_007616_at): No
- Kendall (gene #546 Cav1 NM_007616_at): Yes
- Wilcoxon (gene #547 Cdkn2c NM_007671_at): No
- Kendall (gene #547 Cdkn2c NM_007671_at): Yes
- Wilcoxon (gene #548 Chd1 NM_007690_at): No
- Kendall (gene #548 Chd1 NM_007690_at): Yes
- Wilcoxon (gene #549 Cox8a NM_007750_at): No
- Kendall (gene #549 Cox8a NM_007750_at): Yes
- Wilcoxon (gene #550 Epc1 NM_007935_at): No
- Kendall (gene #550 Epc1 NM_007935_at): Yes
- Wilcoxon (gene #551 Mpzl2 NM_007962_at): No
- Kendall (gene #551 Mpzl2 NM_007962_at): Yes
- Wilcoxon (gene #552 Fnta NM_008033_at): No
- Kendall (gene #552 Fnta NM_008033_at): Yes
- Wilcoxon (gene #553 Gcdh NM_008097_at): No
- Kendall (gene #553 Gcdh NM_008097_at): Yes
- Wilcoxon (gene #554 Gcnt2 NM_008105_at): No
- Kendall (gene #554 Gcnt2 NM_008105_at): Yes
- Wilcoxon (gene #555 Nr3c1 NM_008173_at): No
- Kendall (gene #555 Nr3c1 NM_008173_at): Yes
- Wilcoxon (gene #556 Hhex NM_008245_at): No
- Kendall (gene #556 Hhex NM_008245_at): Yes

From US20150307938A1, “METHOD TO IDENTIFY A NOVEL CLASS OF IMMUNOLOGIC ADJUVANTS” (Lancell, L.L.C., priority 2011, published 2015)
